Patent US20180258100A1, “RAPAMYCIN ANALOGS SHOWING IMPROVED mTORC1 SPECIFICITY” (priority 2015, published 2018)

How the values were obtained:
[1] = Insulin challenge response; type: in vivo, female C57BL/6J mice; settings: 0.75 IU/kg insulin after 2 weeks; rapamycin 8 mg/kg, compound 390 12 mg/kg i.p. every other day
Protocol: FIG. 10. Response to insulin challenge following administration of 0.75 IU/kg insulin at t=2 weeks following the initiation of the intraperitoneal administrations of 8 mg/kg rapamycin, 12 mg/kg compound 390 or vehicle control every other day in female mice (N=5).
(§1) 10-week old female C57BL/6J mice were given intraperitoneal injections of 8 mg/kg rapamycin (LC laboratories), 12 mg/kg compound 390 or vehicle every other day for three weeks (N=5 mice/group), such as to mimic chronic exposure conditions. 24 hours after the last injection, tissues were dissected from the mice and immediately frozen in liquid nitrogen. The tissues were homogenized using the Omni TH homogenizer (Omni International) on ice in RIPA buffer and then centrifuged at 13,000 rpm for 15 minutes at 4° C. The supernatants were collected and protein concentration was determined using the DC protein assay (Biorad).

mTORC1 = mTORC1 (Mus musculus, UniProt P26883+Q9JLN9); experiment: Immunoblot of liver, muscle and brain after four weeks, mTORC1; type: in vivo, male C57BL/6J mice; settings: rapamycin 8 mg/kg, compound 390 12 mg/kg i.p. every other day
Protocol: (§2) Fortyfive C57BL/6J male mice, housed three per cage, were weighed and their body composition was measured with an EchoMRI 3-in-1 system. […] Mice received every-other-day injections of either vehicle, rapamycin (8 mg/kg), or compound 390 (12 mg/kg). A glucose tolerance test was performed after 2 weeks (morning after the 8th injection). A pyruvate tolerance test was performed after 3 weeks. Glucose stimulated insulin secretion assay was performed after 4 weeks and additional blood was collected for whole blood analysis. Body composition was measured on day −2 and day 31.
For western blotting, antibodies to phospho-Akt S473 (4060), Akt (4691), phospho-S6 ribosomal protein (2215), S6 ribosomal protein (2217), phospho-4E-BP1 S65 (9451) and 4E-BP1 (9452) were from Cell Signaling Technology.
Cells and tissue samples were lysed in cold RIPA buffer supplemented with phosphatase inhibitor and protease inhibitor cocktail tablets (PI88669, Fisher Scientific). Tissues were lysed in RIPA buffer using a FastPrep 24 (M.P. Biomedicals) with bead-beating tubes and ceramic beads (Mo-Bio Laboratories), and then centrifuged. Protein concentration was determined by Bradford assay (Pierce Biotechnology). Protein was separated by sodium dodecylsulphate-polyacrylamide gel electrophoresis (SDS-PAGE) on 8, 10, or 16% resolving gels (Life Technologies).

[2] = Glucose challenge response; type: in vivo, female C57BL/6J mice; settings: 2 mg/kg glucose after 1 week; rapamycin 8 mg/kg, compound 390 12 mg/kg i.p. every other day
Protocol: as §1
Steady state glucose levels were determined after one week from study initiation using a Bayer Contour blood glucose meter and test strips from small blood samples, which were withdrawn from a tail vein nick. […]

[3] = Fat mass by EchoMRI body composition after four weeks; type: in vivo, male C57BL/6J mice; settings: 4 weeks of every other day administration; rapamycin 8 mg/kg, compound 390 12 mg/kg; versus vehicle
Protocol: Fortyfive C57BL/6J male mice, housed three per cage, were weighed and their body composition was measured with an EchoMRI 3-in-1 system. Cages were sorted into three groups—vehicle, rapamycin, and compound 390—such that the average weight was similar for all three groups. Mice received every-other-day injections of either vehicle, rapamycin (8 mg/kg), or compound 390 (12 mg/kg). A glucose tolerance test was performed after 2 weeks (morning after the 8th injection). A pyruvate tolerance test was performed after 3 weeks. Glucose stimulated insulin secretion assay was performed after 4 weeks and additional blood was collected for whole blood analysis. Body composition was measured on day −2 and day 31.

mTORC2 = mTORC2 (Mus musculus, UniProt P26883+Q9JLN9); experiment: Western blot of mouse tissues after 3 weeks i.p. dosing, mTORC2 (P-AKT/Total AKT); type: in vivo, female C57BL/6J mice; settings: soleus muscle, 12 mg/kg i.p. every other day for 3 weeks
Sequence of mTORC2 (P26883 2-108 limits assumed, other chains not shown): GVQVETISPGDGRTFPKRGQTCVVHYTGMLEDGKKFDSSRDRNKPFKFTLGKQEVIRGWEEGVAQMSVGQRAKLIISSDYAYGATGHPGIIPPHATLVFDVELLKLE
Protocol: as §1
The mTORC1/2 inhibition was determined by Western blots. Equal amounts of protein were resolved by SDS-PAGE and transferred to nitrocellulose membrane using the Invitrogen Nu-Page system. The membranes were blocked for 1 h in 5% milk and incubated overnight in the appropriate antibodies. The following day, blots were washed 3 times in TBST, incubated for 2 h with secondary antibodies (donkey anti rabbit hrp conjugated), and finally washed an additional 3 times in TBST. ECL Prime (Amersham) was used to detect the proteins of interest and ImageJ software was used to quantify the band intensity of the Western blots.

[4] = Glucose tolerance test after 2 weeks of chronic dosing; type: in vivo, male C57BL/6J mice; settings: rapamycin 8 mg/kg, compound 390 12 mg/kg every other day, male mice
Protocol: as §2
Mice were fasted overnight for 16 hours and then injected with either glucose (1 g/kg) or pyruvate (2 g/kg) intraperitoneally. For glucose and pyruvate tolerance tests, small blood samples were taken from a tail vein nick at time intervals and read using a Bayer Contour blood glucose meter and test strips. For glucose-stimulated insulin secretion, blood glucose levels were read using a glucometer and then 50 μL of blood was collected into a heparinized tube immediately prior to and 15 minutes following glucose administration. Insulin levels were determined using a Mouse Insulin ELISA kit (Crystal Chem).

[5] = heart, visceral fat, pancreas, kidney

CO[C@H]1CC2CC[C@@H](C)[C@@](O)(O2)C(=O)C(=O)N2CCCC[C@H]2C(=O)O[C@H]([C@@H](C)CC2CCC(O)CC2)CC(=O)[C@@H](C)/C=C(\C)[C@H](O)[C@H](O)C(=O)[C@@H](C)C[C@H](C)/C=C/C=C/C=C/1C (stereo partly drawn) [compound 390, 27-O-Desmethyl-39-Desmethoxy Rapamycin]
glucose response after insulin challenge (insulin resistance) [1]: indistinguishable from the vehicle-receiving control animals
mTORC1 inhibition in liver, muscle and brain (mTORC1): significantly inhibits mTORC1 at approximately the same level as rapamycin
glucose response after glucose challenge (glucose intolerance) [2]: indistinguishable from the vehicle-receiving control animals
fat mass (adiposity) [3]: does not induce any increase of adiposity
mTORC2 inhibition in tissues (mTORC2; gastrocnemius muscle, lung, liver): very weak
change of mTORC2 activity in tissues (mTORC2; [5]): small upregulation of mTORC2 activity
mTORC2 inhibition in tissues (mTORC2; [5]): no inhibition of mTORC2
glucose tolerance test ([4]; after 2 weeks): identical to the vehicle-receiving animals
fasting hyperglycemia ([4]; chronic dosing): does not cause
